Experimental data reported in US20250027930A1, “SMALL MOLECULES FOR REPROGRAMING ANTI-TUMOR IMMUNITY OF T CELLS” (THE SCRIPPS RESEARCH INSTITUTE, priority 2021, published 2025).

Tests used:
OT-1 cells [1] = test: OT-1 cells treated with K+ or p38i; format: cell-based, mouse
Source text: We also tested two small molecules (KCl and p38i) reported in papers. (Science 2019, 363, (6434); Cancer Cell 2020, 37, (6), 818-833 e9).

P14 cells = test: P14 splenocyte in vitro activation, re-stimulation and expansion; format: cell-based, mouse; conditions: for Fold of proliferation, Normalized to W/O: P14 cells
OT-1 cells [2] = test: OT-I-Tcf7GFP splenocyte screen: proliferation and Tim3−TCF-1+ ratio; format: cell-based, mouse; conditions: Day7, 60 mM; for Tim3^−TCF-1^+ ratio of CD8^+ T cells (%): w/o 2.6; for activity at 60000 µM: Mus musculus, Splenocyte, 168 h, OT-1 cells, read-out: Proliferation fold, Normalized to W/O
Experimental: Cell number was recorded on day 3 and day 7. On day 7, cells were stained with anti-CD8a (PerCP-Cy5.5) and anti-Tim3 (BV421) antibodies for flow cytometry or plate reader analysis.
Because TCF1 expression positively correlates with T cell stemness, the greater signal of EGFP a T cell expresses, the less differentiated the T cell is. Furthermore, if the compound also facilitates T cells proliferation, there would be more T cells per well in comparison to the untreated control. Therefore, a compound that not only maintains TCF-1 expression but also facilitates T cell growth would produce the strongest green fluorescence intensity. […] GlcA stands for glucuronic acid.

B16-OVA tumor = format: in vivo, mouse
Experimental: (§1) Naïve splenocytes from OT-1 mice were stimulated in vitro with OVA257-264 (500 nM) and IL-2 (60 IU/mL) in the presence or absence of an added compound for 3 days at a density of 1 million/mL (100 uL/well in 96/well plate), then expanded for 4 days. On day 7, PD-1, Tim3 and TCF-1 expressions were assessed by flow cytometry by staining cells with anti-CD8a (PerCP-Cy5.5), anti-Tim3 (BV421) and anti-TCF-1 (AF488) antibodies. For adoptive transfer, 0.6M B16-OVA cells (6×10^5) were inoculated subcutaneously 3 to 5 days before transfer in C57BL/6. On the day of adoptive transfer, mice were irradiated with 5 Gy X-ray, randomized according to tumor size, and intravenously injected with 0.2-0.3M of CD8+OT-1 T cells (2×10^5) expanded under different conditions, followed by administration of 50000 IU IL-2 every 12 h for four days. In the control group, mice were injected with cell-free vehicle only. For assessment of adoptive transfer of OT-1 CD8+ T cells activated and expanded by contacting the cells with fructose, on day 9 after transfer, anti-PD-1 (100 ug/mouse) was administered to the mice that had received T cell transfer. For assessment of adoptive transfer of OT-1 CD8+ T cells activated and expanded by contacting cells with Neu5Ac, on day 14 and day 21 after transfer, anti-PD-1 (100 ug/mouse) was administered to the mice that had received T cell transfer. The tumor growth was monitored every 3 to 4 days by measuring tumor size. Percent survival was also monitored and recorded within a period of 40 days post treatment. To evaluate tumor infiltrating OT-1 T cells, 0.6M B16-OVA cells (6×10^5) were inoculated subcutaneously 3 to 5 days before transfer in C57BL/6. On the day of adoptive transfer, mice were irradiated with 5 Gy X-ray, randomized according to tumor size, and intravenously injected with 0.2-0.3M of CD8+OT-1 T cells (2×10^5) expanded under different conditions, followed by administration of 50000 IU IL-2 every 12 h for four days. Tumors were then isolated and assessed for percentage of OT-I T cells from the total CD8+ T cells and OT-1 T cell number per gram of tumor tissue. To evaluate apoptosis, Naïve OT-1 splenocytes were stimulated by OVA257-264 (500 nM) without IL-2 in the presence of absence of sugars for 5 days followed by using Annexin V Apoptosis detection kit (Biolegend). […] To evaluate other cellular characteristics, naïve OT-1 splenocytes were stimulated by OVA257-264 (500 nM) with IL-2 (60 IU/mL) in the presence or absence of sugars for 7 or 8 days. On day 7 or 8 cells were taken and analyzed by assessment of ROS, NADPH/NADP+ ratio, and GSH/GSSG ratio.

OT-1 splenocytes [3] = test: Apoptosis (Annexin V) and IL-2 production of OT-1 splenocytes stimulated without IL-2; format: cell-based, mouse; conditions: OVA257-264 500 nM without IL-2, 5 days
Experimental: as §1

OT-1 splenocytes [4] = test: ROS, NADPH/NADP+ ratio and GSH/GSSG ratio of OT-1 splenocytes; format: cell-based, mouse; conditions: day 7 or 8, with IL-2; vs T cells not treated with sugar
Experimental: as §1

[5] = test system: MC38 TSA-reactive CD8+ TILs; test: Rapid expansion of TSA-reactive CD8+ TILs from MC38 tumors; format: cell-based, mouse
Experimental: Sugars were added at the beginning or during the expansion of the TILs, and kept till the end of expansion. On expansion day 9, phenotypes of the expanded T cells were assessed, and the cells were used for adoptive transfer (FIG. 6E). For adoptive transfer, 0.5 million cells (B16-OVA or MC38) were inoculated subcutaneously on each mouse on day 0, Listeria monocytogenes-OVA (LM-OVA) infection 0.5 million CFU/mice on day 1, and blood analysis was recorded on day 7.

TILs from B16-OVA tumor = format: cell-based, mouse; conditions: day 7 rapid expansion; vs without sugars
Experimental: TILs from B16-OVA tumor were isolated on day10 after inoculation, and Tim-3^−TCF/GFP^+ and Tim-3^+TCF/GFP^− in tetramer positive population were collected by live cell sorting (FIG. 15A). Phenotype features of Tim-3^−TCF/GFP^+ (FIG. 15B) and Tim-3^+TCF/GFP^− (FIG. 15C) were analyzed on day 7 after rapid expansion with feeder cells (TILs/feeder cell: 1/200) in the presence or absence of sugars.
To investigate which population that sugars mainly changed on T cells, B16-OVA cancer cells (7×10^5 cells) were subcutaneously inoculated into the left or right flank of TCF7^GFP mice expressing an EGFP fluorescent reporter from the endogenous Tcf7 locus, which enable us to track the expression of TCF-1 in live cells.

P14 CD8+ T cells = format: in vivo, mouse; conditions: 14 dpi LCMV-Cl13; cells treated in vitro, vs untreated
OT-1 CD8+ T cells = test: OT-1 splenocyte activation and expansion, day 7 flow cytometry; format: cell-based, mouse; conditions: for percentage of Tim3−TCF-1+ CD8+ T cells (in words): OT-1 cells day 7, compared with fructose or sucrose
Experimental: Naïve splenocytes from OT-1 mice were stimulated in vitro with OVA257-264 (500 nM) and IL-2 (60 IU/mL) in the presence or absence of an added compound for 3 days at a density of 1 million/mL (100 uL/well in 96/well plate), then expanded for 4 days. On day 7, PD-1, Tim3 and TCF-1 expressions were assessed by flow cytometry by staining cells with anti-CD8a (PerCP-Cy5.5), anti-Tim3 (BV421) and anti-TCF-1 (AF488) antibodies. For adoptive transfer, 0.6M B16-OVA cells (6×10^5) were inoculated subcutaneously 3 to 5 days before transfer in C57BL/6. On the day of adoptive transfer, mice were irradiated with 5 Gy X-ray, randomized according to tumor size, and intravenously injected with 0.2-0.3M of CD8+OT-1 T cells (2×10^5) expanded under different conditions, followed by administration of 50000 IU IL-2 every 12 h for four days. In the control group, mice were injected with cell-free vehicle only. For assessment of adoptive transfer of OT-1 CD8+ T cells activated and expanded by contacting the cells with fructose, on day 9 after transfer, anti-PD-1 (100 ug/mouse) was administered to the mice that had received T cell transfer. For assessment of adoptive transfer of OT-1 CD8+ T cells activated and expanded by contacting cells with Neu5Ac, on day 14 and day 21 after transfer, anti-PD-1 (100 ug/mouse) was administered to the mice that had received T cell transfer. The tumor growth was monitored every 3 to 4 days by measuring tumor size. Percent survival was also monitored and recorded within a period of 40 days post treatment. To evaluate tumor infiltrating OT-1 T cells, 0.6M B16-OVA cells (6×10^5) were inoculated subcutaneously 3 to 5 days before transfer in C57BL/6. […] Tumors were then isolated and assessed for percentage of OT-I T cells from the total CD8+ T cells and OT-1 T cell number per gram of tumor tissue. […] On day 7 or 8 cells were taken and analyzed by assessment of ROS, NADPH/NADP+ ratio, and GSH/GSSG ratio.

OT-I splenocytes = test: OT-I splenocyte culture with purine/pyrimidine pathway compounds; format: cell-based, mouse; conditions: added together with N-Acetylneuraminic acid on day 3, analyzed day 5
Experimental: We therefore tested if purine and pyrimidine nucleotides have similar effects as N-Acetylneuraminic acid to help maintain less differentiated phenotypes of T cells during expansion. OT-I splenocytes were cultured with 500 nM […] peptide (OVA257-264) for three days at initial cell density of 1×10^6/mL to activate and expand the CD8+ T cell population. Different concentrations of the products or intermediates in purine or pyrimidine de novo synthesis pathways were added on day 3. The tested compounds include, e.g., guanosine, deoxyguanosine, adenosine, deoxyadenosine, inosine, xanthosine, orotidine, uridine, cytidine, deoxycytidine, thymidine, deoxythymidine, 5-Aminoimidazole-4-carboxamide ribonucleotide (AICAR), orotate, and dihydroorotate. The phenotype of expanded T cells were analyzed on day 5.

Compound: [Cl-].[K+] [K^+, KCl]
- Tim3−TCF-1+ ratio of OT-1 cells (in words) (OT-1 cells [1]): increased
- proliferation of OT-1 cells (in words) (OT-1 cells [1]): slightly inhibit
- Proliferation fold, Normalized to W/O (OT-1 cells [1]; Day 7, 40 mM, OT-1 cells): 0.87 fold
- Tim3^−TCF-1^+ ratio of CD8^+ T cells (%) (OT-1 cells [1]; Day 7, 40 mM, W/O 9.5): 80.7%
- slowed down T cell proliferation (P14 cells; compared to untreated T cells): 10-20%

Compound: CC(=O)N[C@H]1C(O)O[C@H](CO)[C@@H](O)[C@@H]1O (some centres unmarked) [GlcNAc, N-Acetylglucosamine]
- Tim3^−TCF-1^+ ratio of CD8^+ T cells (%) (OT-1 cells [2]): 28.8%
- activity at 60000 µM (OT-1 cells [2]): 145%
- tumor infiltrating OT-1 T cell numbers (B16-OVA tumor; treated T cells transferred to B16-OVA mice): increased
- viability and apoptotic characteristics (OT-1 splenocytes [3]; vs T cells not treated with sugar): enhanced viability and differential apoptotic characteristics
- production of IL-2 (OT-1 splenocytes [3]; vs no sugar): significantly greater
- GSH/GSSG ratio (OT-1 splenocytes [4]): greater
- NADPH/NADP+ ratio (OT-1 splenocytes [4]): greater
- ROS (OT-1 splenocytes [4]): significantly less
- cell surface anti-CLA (Cutaneous Lymphocyte-associated Antigen) staining [5]: significant increase
- maintenance of progenitor exhausted features of sorted Tim-3-TCF-GFP^+ TILs (TILs from B16-OVA tumor): maintain more Tim-3^−TCF/GFP^+ cells
- Fold of proliferation, Normalized to W/O (P14 cells; Day6, 60 mM): 2.47 fold
- Tim3^−TCF-1^+ ratio of CD8^+ T cells (%) (P14 cells; Day6, 60 mM, w/o 55.0): 89.2%
- Fold of proliferation, Normalized to W/O (P14 cells; Day9, 60 mM): 1.44 fold
- Tim3^−TCF-1^+ ratio of CD8^+ T cells (%) (P14 cells; Day9, 60 mM, w/o 3.5): 21.2%

Compound: OC[C@H]1O[C@@H](O[C@H]2[C@H](O)[C@@H](O)C(O)O[C@@H]2CO)[C@H](O)[C@@H](O)[C@H]1O (some centres unmarked) [Lactose, lactose]
- Tim3^−TCF-1^+ ratio of CD8^+ T cells (%) (OT-1 cells [2]): 25.6%
- activity at 60000 µM (OT-1 cells [2]): 63%
- percentages and total numbers of expanded virus-specific P14 CD8+ T cells in the spleen and liver (P14 CD8+ T cells): significantly higher
- capabilities to control tumor growth (B16-OVA tumor; adoptive transfer of sugar-treated OT-1 T cells, vs untreated T cells): significantly better
- percentage of Tim3−TCF-1+ CD8+ T cells (in words) (OT-1 CD8+ T cells): increased the percentage of Tim3−TCF-1+ CD8+ T cells but at a lower level
- Fold of proliferation, Normalized to W/O (P14 cells; Day6, 60 mM): 1.87 fold
- Tim3^−TCF-1^+ ratio of CD8^+ T cells (%) (P14 cells; Day6, 60 mM, w/o 55.0): 79.4%
- Fold of proliferation, Normalized to W/O (P14 cells; Day9, 60 mM): 1.76 fold
- Tim3^−TCF-1^+ ratio of CD8^+ T cells (%) (P14 cells; Day9, 60 mM, w/o 3.5): 23.7%

Compound: Nc1nc2c(ncn2[C@@H]2O[C@H](CO)[C@@H](O)[C@H]2O)c(=O)[nH]1 [guanosine]
- cell proliferation (OT-I splenocytes): without significant impact on cell proliferation

Compound: O=C[C@H](O)[C@@H](O)[C@@H](O)[C@H](O)CO [Galactose, galactose]
- T cell proliferation (OT-1 CD8+ T cells; 80 mM, OT-1 cells): significantly suppressed
- percentage of Tim3−TCF-1+ CD8+ T cells (in words) (OT-1 CD8+ T cells): increased the percentage of Tim3−TCF-1+ CD8+ T cells but at a lower level
- Fold of proliferation, Normalized to W/O (P14 cells; Day6, 80 mM): 1.59 fold
- Tim3^−TCF-1^+ ratio of CD8^+ T cells (%) (P14 cells; Day6, 80 mM, w/o 55.0): 88.9%
- Fold of proliferation, Normalized to W/O (P14 cells; Day9, 80 mM): 1.87 fold
- Tim3^−TCF-1^+ ratio of CD8^+ T cells (%) (P14 cells; Day9, 80 mM, w/o 3.5): 37.4%
